In brackets after ≈: the same amount, converted by molar mass. Like-named read-outs stand apart in the source and are kept apart here.
Experiments:
[1] = biological target: T1, S. aureus Uridine-diphosphate-N-acetvimuramoyl: L-alanine lipase, MurC (Staphylococcus aureus, UniProt Q2FXJ0); experiment: biochemical; settings: (S) S. aureus enzyme; read-out: MurC IC50 (converted)
T1 sequence (Q2FXJ0 1-437): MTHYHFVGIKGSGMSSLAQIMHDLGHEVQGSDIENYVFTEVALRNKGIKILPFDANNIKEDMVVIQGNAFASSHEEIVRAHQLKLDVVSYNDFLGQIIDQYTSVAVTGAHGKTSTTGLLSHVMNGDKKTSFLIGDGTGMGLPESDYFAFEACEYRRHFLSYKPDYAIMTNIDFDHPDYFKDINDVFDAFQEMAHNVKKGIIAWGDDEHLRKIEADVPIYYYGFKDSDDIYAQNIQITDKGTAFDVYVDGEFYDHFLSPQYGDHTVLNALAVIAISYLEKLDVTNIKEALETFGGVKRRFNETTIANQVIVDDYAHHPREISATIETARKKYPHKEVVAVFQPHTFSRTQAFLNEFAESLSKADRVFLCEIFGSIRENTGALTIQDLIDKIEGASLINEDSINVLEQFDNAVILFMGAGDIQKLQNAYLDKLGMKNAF
Procedure: S. aureus and E. coli Uridine-diphosphate-N-acetvimuramoyl: L-alanine lipase, MurC
(§1) Preparation of Enzyme Solution:
A 1 mg/mL stock solution of MurC is prepared in a buffer consisting of 20 mM Tris/HCl (pH 8.5) with 2.5 μM BME. The stock solution is further diluted with the buffer to give a final enzyme concentration of 100 μg/mL for the E. coli stock solution and 70 μg/mL for the S. aureus stock solution.
(§2) Preparation of Test Compound Solutions:
(§3) All test solutions are prepared in DMSO as 10 mg/mL, then diluted with 50 mM Tris/HCl (pH 8.5) to 100 μg/mL.
(§4) Preparation of Stop Solution:
The stop solution is prepared by stirring 1 part 4.2% ammonium molydbate in 4N HCl with 2 parts 0.045% malachite green for 30 min.
In this evaluation, the inhibitory activity of a test compound against MurC, the enzyme which catalyzes the third step of bacterial cell wall bioxynthesis is determined. Experiments are performed by adding 2.5 μl buffer, 2.5 μl 0.5M NH4SO2, 5 μl 2 μM L-Ala, 5 μl enzyme solution and 6.5 μl test compound solution to each well in a 96-well microplate. After a pre-incubation period of 10 mins. at 23° C., 3.75 μl of a 0.75 μM solution of UDP-MurNac is added to each well. Following an incubation period of 10 mins. at 37° C., 210 μl stop solution and 50 μl of a 34% w/v sodium citrate solution are added and color is allowed to develop for 10 mins. at 23° C. (Lanzetta et al., Analytical Biochemistry, 1979, 95) Optical density readings are taken at 660 nm using a Molecular Devices Spectra Max 250 with Soft Max software. Controls are performed using the same procedure and omitting the addition of UDP-MurNac. […]
Using these values the IC50 is determined by linear regression analysis.

[2] = biological target: E. coli Uridine-diphosphate-N-acetvimuramoyl: L-alanine lipase, MurC (Escherichia coli, UniProt P17952); experiment: Inhibitory activity against MurC (E. coli); format: biochemical; settings: (E) E. coli enzyme; for IC50: read-out: MurC IC50 (converted)
Sequence of E. coli Uridine-diphosphate-N-acetvimuramoyl: L-alanine lipase, MurC (P17952 whole entry): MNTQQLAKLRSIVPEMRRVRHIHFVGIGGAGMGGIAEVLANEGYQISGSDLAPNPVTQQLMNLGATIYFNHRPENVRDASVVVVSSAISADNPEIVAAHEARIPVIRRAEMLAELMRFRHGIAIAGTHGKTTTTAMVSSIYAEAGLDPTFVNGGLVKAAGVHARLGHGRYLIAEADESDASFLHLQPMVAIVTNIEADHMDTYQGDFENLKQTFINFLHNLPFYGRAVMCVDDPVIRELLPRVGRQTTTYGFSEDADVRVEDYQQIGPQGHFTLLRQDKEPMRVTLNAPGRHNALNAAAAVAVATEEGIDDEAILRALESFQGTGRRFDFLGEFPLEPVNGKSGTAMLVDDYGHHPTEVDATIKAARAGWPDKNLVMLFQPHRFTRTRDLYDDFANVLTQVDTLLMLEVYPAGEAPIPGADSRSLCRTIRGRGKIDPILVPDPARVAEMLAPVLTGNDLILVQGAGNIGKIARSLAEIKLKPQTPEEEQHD

[3] = biological target: T2, S. aureus Uridine-diphosphate-N-acetylmuramoyl-L-alanine: D-glutamate liease, MurD (Staphylococcus aureus, UniProt Q2FZ92); experiment: biochemical; settings: (S) S. aureus enzyme
T2 sequence (Q2FZ92 1-449): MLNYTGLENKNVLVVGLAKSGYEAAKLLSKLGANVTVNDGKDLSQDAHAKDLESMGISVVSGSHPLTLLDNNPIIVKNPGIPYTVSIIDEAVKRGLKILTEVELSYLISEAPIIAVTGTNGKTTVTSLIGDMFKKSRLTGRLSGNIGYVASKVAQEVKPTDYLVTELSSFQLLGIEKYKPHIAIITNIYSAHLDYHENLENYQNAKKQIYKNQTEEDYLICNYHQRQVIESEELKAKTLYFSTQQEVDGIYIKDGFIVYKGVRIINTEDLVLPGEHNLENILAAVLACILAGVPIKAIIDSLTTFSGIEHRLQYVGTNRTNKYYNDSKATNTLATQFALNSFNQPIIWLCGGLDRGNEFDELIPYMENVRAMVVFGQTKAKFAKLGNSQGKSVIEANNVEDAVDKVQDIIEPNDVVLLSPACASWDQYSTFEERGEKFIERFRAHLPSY
Procedure: S. aureus and E. coli Uridine-diphosphate-N-acetylmuramoyl-L-alanine: D-glutamate liease, MurD
as §1, §2, §3, §4
In this evaluation, the inhibitory activity of a test compound against MurD, the enzyme which catalyzes the fourth step of bacterial cell wall biosynthesis is determined.

staphylococci = experiment: Minimum inhibitory concentration, microdilution broth method, staphylococci; format: cell-based; settings: Mueller-Hinton broth, 18-22 hours at 35° C.; for MIC: Staphylococcus aureus
Outline: (§5)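 Broth microdilution MIC per NCCLS M7-A5. Staphylococci and enterococci tested in Mueller-Hinton broth; streptococci in Mueller-Hinton broth with 5% lysed horse blood. Strains include clinical isolates resistant to methicillin, penicillin and/or vancomycin.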

enterococci = experiment: Minimum inhibitory concentration, microdilution broth method, enterococci; format: cell-based; settings: Mueller-Hinton broth, 18-22 hours at 35° C.; for MIC: Enterococcus faecalis
Outline: as §5

Streptococci = experiment: Minimum inhibitory concentration, microdilution broth method, streptococci; format: cell-based; settings: Mueller-Hinton broth with 5% horse blood, 18-22 hours at 35° C.; for MIC: S. pneumo GC 1894
Outline: as §5

[4] = biological target: E. coli Enopyruvyl-UPD-N-acetylglucosamine reductase, Mur B (Escherichia coli, UniProt P08373); experiment: biochemical; settings: (E) E. coli enzyme; for IC50: read-out: MurB IC50 (converted)
Sequence of E. coli Enopyruvyl-UPD-N-acetylglucosamine reductase, Mur B (P08373 whole entry): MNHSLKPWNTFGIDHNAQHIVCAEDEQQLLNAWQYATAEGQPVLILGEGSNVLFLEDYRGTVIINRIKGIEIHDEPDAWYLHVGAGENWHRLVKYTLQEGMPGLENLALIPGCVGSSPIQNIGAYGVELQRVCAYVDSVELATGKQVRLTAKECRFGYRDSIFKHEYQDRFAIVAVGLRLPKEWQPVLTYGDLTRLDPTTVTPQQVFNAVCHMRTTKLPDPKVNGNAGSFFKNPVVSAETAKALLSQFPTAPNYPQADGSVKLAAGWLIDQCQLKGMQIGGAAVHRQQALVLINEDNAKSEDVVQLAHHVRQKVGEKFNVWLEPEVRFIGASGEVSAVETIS

[5] = biological target: T3, S. aureus Enopyruvyl-UPD-N-acetylglucosamine reductase, Mur B (Staphylococcus aureus, UniProt P61431); experiment: biochemical; settings: (S) S. aureus enzyme; read-out: MurB IC50 (converted)
T3 sequence (P61431 1-307): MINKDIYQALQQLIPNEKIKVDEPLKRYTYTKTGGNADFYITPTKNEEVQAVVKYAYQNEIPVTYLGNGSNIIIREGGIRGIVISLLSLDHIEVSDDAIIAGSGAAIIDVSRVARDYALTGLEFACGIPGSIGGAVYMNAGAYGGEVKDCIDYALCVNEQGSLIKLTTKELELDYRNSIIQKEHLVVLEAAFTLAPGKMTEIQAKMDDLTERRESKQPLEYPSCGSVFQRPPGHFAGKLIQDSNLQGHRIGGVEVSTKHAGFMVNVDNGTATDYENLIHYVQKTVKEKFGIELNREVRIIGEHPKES

[6] = biological target: E. coli UDP-N-acetylglucosamine enolpyruvoyl transferase, MurA (Escherichia coli, UniProt P0A749); experiment: biochemical; settings: (E) E. coli enzyme
Sequence of E. coli UDP-N-acetylglucosamine enolpyruvoyl transferase, MurA (P0A749 whole entry): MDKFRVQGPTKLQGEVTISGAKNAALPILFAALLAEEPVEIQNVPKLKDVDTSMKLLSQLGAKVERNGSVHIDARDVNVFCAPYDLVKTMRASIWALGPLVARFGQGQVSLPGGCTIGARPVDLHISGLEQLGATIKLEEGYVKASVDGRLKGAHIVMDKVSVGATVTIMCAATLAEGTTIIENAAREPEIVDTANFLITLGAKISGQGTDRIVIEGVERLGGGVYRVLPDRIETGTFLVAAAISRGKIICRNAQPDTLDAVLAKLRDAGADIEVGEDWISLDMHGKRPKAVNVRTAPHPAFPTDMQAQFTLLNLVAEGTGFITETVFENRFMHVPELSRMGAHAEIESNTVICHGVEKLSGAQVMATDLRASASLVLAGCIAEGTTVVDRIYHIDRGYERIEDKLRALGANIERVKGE
Procedure: (§6) Evaluation of the Inhibitory Activity of Test Compounds Against Enzymes which Catalyze Bacterial Cell Wall Biosynthesis
(§7) S. aureus and E. coli UDP-N-acetylglucosamine enolpyruvoyl transferase, MurA
as §1
(§8) The enzyme solution is prepared by admixing the following: 50 mM Tris/HCl pH 8.0, […] 1 M Tris, 5 mM DTT, […] 1 M DTT, 20% Glycerol 4 ml 50% Glycerol, add water to 10 ml.
as §4
A procedure similar to that described by C. […] Experiments are performed by adding a solution of test compound (in a mixture of dimethylsulfoxide and water) and an enzyme solution to a well. After a pre-incubation period of 10 mintues at 37° C., Tris/BME buffer and assay buffer are added. A start point optical density (OD0) reading is taken at 340 nm immediately following the addition of assay buffer. After incubation for 1 hr at 37° C., the stop solution is added and the color is allowed to develop for 30 minutes.

[7] = biological target: E. coli Uridine-diphosphate-N-acetylmuramoyl-L-alanine: D-glutamate liease, MurD (Escherichia coli, UniProt P14900); experiment: biochemical; settings: (E) E. coli enzyme
Sequence of E. coli Uridine-diphosphate-N-acetylmuramoyl-L-alanine: D-glutamate liease, MurD (P14900 whole entry): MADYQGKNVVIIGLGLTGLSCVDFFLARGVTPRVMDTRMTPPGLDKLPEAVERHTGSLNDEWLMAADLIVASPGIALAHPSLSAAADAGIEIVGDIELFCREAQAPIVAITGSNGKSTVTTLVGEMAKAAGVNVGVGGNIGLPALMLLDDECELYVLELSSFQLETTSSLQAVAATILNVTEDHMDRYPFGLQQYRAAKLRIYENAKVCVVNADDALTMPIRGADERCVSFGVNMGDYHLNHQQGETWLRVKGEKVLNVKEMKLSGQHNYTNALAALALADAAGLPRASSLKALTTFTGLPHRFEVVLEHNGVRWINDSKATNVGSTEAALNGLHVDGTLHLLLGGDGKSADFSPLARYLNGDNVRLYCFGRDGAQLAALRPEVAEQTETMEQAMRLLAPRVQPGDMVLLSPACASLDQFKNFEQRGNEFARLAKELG
Outline: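 Compound working solutions reach 100 μg/mL in 50 mM Tris/HCl (pH 8.5) after dilution of 10 mg/mL DMSO stocks; final level in the well not given here. Reaction buffer finals: 2 mM ATP, 50 mM MgCl2, 83 mM Tris/HCl, pH 8.0.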

[8] = biological target: T4, S. aureus UDP-N-acetylglucosamine enolpyruvoyl transferase, MurA (Staphylococcus aureus, UniProt P84058); experiment: Inhibitory activity against MurA (S. aureus); format: biochemical; settings: (S) S. aureus enzyme
T4 sequence (P84058 1-421): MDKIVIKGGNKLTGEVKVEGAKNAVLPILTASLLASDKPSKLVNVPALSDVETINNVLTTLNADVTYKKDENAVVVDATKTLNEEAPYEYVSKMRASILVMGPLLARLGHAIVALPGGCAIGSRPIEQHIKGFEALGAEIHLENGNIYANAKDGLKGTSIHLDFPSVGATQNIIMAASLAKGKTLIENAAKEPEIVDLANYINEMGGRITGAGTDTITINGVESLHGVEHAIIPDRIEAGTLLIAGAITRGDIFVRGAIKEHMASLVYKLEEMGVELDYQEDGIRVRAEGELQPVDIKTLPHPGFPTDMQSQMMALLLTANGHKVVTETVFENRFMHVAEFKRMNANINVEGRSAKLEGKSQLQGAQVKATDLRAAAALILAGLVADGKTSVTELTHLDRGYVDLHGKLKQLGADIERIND
Procedure: as §6, §7, §1, §8, §4
The stop solution is prepared by mixing the following: 4.2% ammonium molybdate in 4N HCl, 8.4 g/200 ml 4N HCl, 0.045% malachite green, 90 mg/200 ml water, then stir 1 part ammonium molybdate with 2 parts malachite green for 30 min.
A procedure similar to that described by C. T. Walsh in Biochemistry 33, 10646-10651, is used to evaluate the inhibitory activity of test compounds against MurA, the enzyme which catalyzes the first step of bacterial cell wall biosynthesis. Experiments are performed by adding a solution of test compound (in a mixture of dimethylsulfoxide and water) and an enzyme solution to a well. After a pre-incubation period of 10 mintues at 37° C., Tris/BME buffer and assay buffer are added. A start point optical density (OD0) reading is taken at 340 nm immediately following the addition of assay buffer. After incubation for 1 hr at 37° C., the stop solution is added and the color is allowed to develop for 30 minutes. An end point OD1 reading at […] is then taken. […]

[9] = S. aureus GC 1131, read-out: MIC S. aureus GC 1131
[10] = S. aureus GC 4543, read-out: MIC S. aureus GC 4543
[11] = E. faecalis GC 2242, read-out: MIC E. faecalis GC 2242
[12] = E. faecalis GC 4555, read-out: MIC E. faecalis GC 4555

SMILES	MurC IC50 [2]	IC50 [3] [µM]	MIC (staphylococci; [9]) [µg/mL]	MIC (staphylococci; [10]) [µg/mL]	MIC (enterococci; [11]) [µg/mL]	MIC (enterococci; [12]) [µg/mL]	MIC (Streptococci) [µg/mL]	IC50 [5] [µM]	IC50 [6] [µM]	IC50 [4] [µM]	IC50 [2] [µM]	other results
O=C1O/C(=C\c2cccc3ccccc23)C(O)=C1c1ccc(Cl)cc1 [Example 4, 3-(4-Chlorophenyl)-4-hydroxy-5-[(Z)-1-naphthylmethylidene]-furan-2-(5H)-one]	7 µg/mL	68.8	16 (≈ 45.9 µM)	16 (≈ 45.9 µM)	8 (≈ 22.9 µM)	32 (≈ 91.7 µM)	1 (≈ 2.87 µM)					IC50 [1]: 45.9 µM
O=C1O/C(=C\c2cccc3ccccc23)C(O)=C1c1cccc(C(F)(F)F)c1 [Example 5]	6 (E) μg/mL		8 (≈ 20.9 µM)	8 (≈ 20.9 µM)	8 (≈ 20.9 µM)	16 (≈ 41.8 µM)	0.5 (≈ 1.31 µM)	15.7				MurB IC50 [4]: 8 µg/mL
COc1ccc(C2=C(O)/C(=C/c3cccc4ccccc34)OC2=O)cc1 [Example 6]			32 (≈ 92.9 µM)	64 (≈ 186 µM)	32 (≈ 92.9 µM)	> 128	8 (≈ 23.2 µM)	61	> 72.6	> 72.6	46.5	IC50 [7]: > 72.6 µM
CC(=O)c1ccccc1-c1ccc(/C=C2\OC(=O)C(c3cc(Cl)cc(Cl)c3)=C2O)cc1C [Example 40]		15	1 (≈ 2.15 µM)	1 (≈ 2.15 µM)	2 (≈ 4.3 µM)	2 (≈ 4.3 µM)	< 0.125					IC50 [8]: 30.1 µM; IC50 [1]: 8.6 µM
O=C1O/C(=C\c2ccc(-c3ccccc3C(F)(F)F)cc2)C(O)=C1c1ccccc1C(F)(F)F [Example 61]		39.9	16 (≈ 33.6 µM)	16 (≈ 33.6 µM)	16 (≈ 33.6 µM)	32 (≈ 67.2 µM)	8 (≈ 16.8 µM)		> 52.5	> 52.5	29.4	IC50 [7]: > 52.5 µM
O=C1O/C(=C\c2cccc(-c3ccc(Cl)c(Cl)c3)c2)C(O)=C1c1ccc(Cl)c(Cl)c1 [Example 135]		12.5	32 (≈ 66.9 µM)	1 (≈ 2.09 µM)	4 (≈ 8.37 µM)	4 (≈ 8.37 µM)	1 (≈ 2.09 µM)	6.27	4.18	6.27	12.5	
N#Cc1ccc(C2=C(O)/C(=C/c3ccc(-c4ccc(C#N)cc4)cc3)OC2=O)cc1 [R=H, R1=4-CN—C6H4, R2=4-(4′-CN-biphenyl)]	5 (E) μg/mL											MurA IC50 [6]: 7 (E) μg/mL; MurB IC50 [4]: 15 (E) μg/mL; MurD IC50 [3]: > 25 µg/mL; MurD IC50 [7]: 5 µg/mL; MIC S. aureus GC 1131 (staphylococci; S. aureus GC 1131): >128 µg/mL; MIC S. aureus GC 4543 (staphylococci; S. aureus GC 4543): >128 µg/mL; MIC E. faecalis GC 2242 (enterococci; E. faecalis GC 2242): 32 µg/mL (≈ 82 µM); MIC E. faecalis GC 4555 (enterococci; E. faecalis GC 4555): 64 µg/mL (≈ 164 µM); MIC S. pneumo GC 1894 (Streptococci): 64 µg/mL (≈ 164 µM)
